≈ marks a conversion by molar mass, not a printed value.

The source of these data is ChEMBL document CHEMBL5532639, “Heterocyclic pyrimidine derivatives as promising antibacterial agents” (Eur J Med Chem, 2023).

For assay [1], the system named is Streptococcus pyogenes. Briefly: Antibacterial activity against Streptococcus pyogenes assessed as inhibition of microbial growth by broth micro-dilution method. It counts as functional. In general terms: Broth dilution looks for growth in wells or tubes with falling amounts of substance.
The subject of assay [2] is Pseudomonas aeruginosa. Put plainly: Antibacterial activity against Pseudomonas aeruginosa assessed as inhibition of microbial growth by broth micro-dilution method. It is filed as functional.
Assay [3] relates to Escherichia coli. Briefly: Antibacterial activity against Escherichia coli assessed as inhibition of microbial growth by broth micro-dilution method. It counts as functional.
Assay [4] relates to Staphylococcus aureus. Briefly: Antibacterial activity against Staphylococcus aureus assessed as inhibition of microbial growth by broth micro-dilution method. It counts as functional.
Assay [5] concerns Bacillus subtilis. Put plainly: Antibacterial activity against Bacillus subtilis assessed as inhibition of bacterial growth incubated for 4 to 20 hrs by resazurin based microplate reader analysis. It counts as functional. As to conditions: time 4-20 hrs.
Assay [6] concerns Pseudomonas aeruginosa. Briefly: Antibacterial activity against Pseudomonas aeruginosa assessed as inhibition of bacterial growth incubated for 4 to 20 hrs by resazurin based microplate reader analysis. As to conditions: time 4-20 hrs. It counts as functional. A general note: The colour change of resazurin is a common sign of viable cells or microbes.
Assay [7] has as its system Staphylococcus aureus. Put plainly: Antibacterial activity against Staphylococcus aureus assessed as inhibition of bacterial growth incubated for 4 to 20 hrs by resazurin based microplate reader analysis. It is filed as functional. As to conditions: time 4-20 hrs.
Assay [8] relates to Escherichia coli. Put plainly: Antibacterial activity against Escherichia coli assessed as inhibition of bacterial growth incubated for 4 to 20 hrs by resazurin based microplate reader analysis. It counts as functional. As to conditions: time 4-20 hrs.
For assay [9], the system named is Staphylococcus aureus. Put plainly: microbe, parasite or virus in culture. As to conditions: ATCC 25923, 24 h.
Description: Antibacterial activity against Staphylococcus aureus ATCC 25923 assessed as reduction in bacterial growth measured after 24 hrs by Mueller-Hinton broth assay
For assay [10], the system named is Bacillus subtilis. Briefly: Antibacterial activity against Bacillus subtilis ATCC 465 assessed as reduction in bacterial growth measured after 24 hrs by Mueller-Hinton broth assay. It is filed as functional.
Assay [11] concerns Staphylococcus aureus. Put plainly: Antibacterial activity against Staphylococcus aureus assessed as reduction in microbial growth by CLSI based broth microdilution method. It counts as functional.
Assay [12] has as its system Pseudomonas aeruginosa. Briefly: Antibacterial activity against Pseudomonas aeruginosa assessed as reduction in bacterial growth by broth microdilution method. It is filed as functional.
The test system of assay [13] is Escherichia coli. Put plainly: Antibacterial activity against Escherichia coli assessed as bacterial growth inhibition incubated for 18 hrs by CLSI protocol based Mueller-Hinton broth assay. It is filed as functional.
For assay [14], the system named is Streptococcus pyogenes. Briefly: Antibacterial activity against Streptococcus pyogenes assessed as reduction in microbial growth by CLSI based broth microdilution method. It is filed as functional.
The next assay deals with Salmonella typhimurium. Put plainly: Antibacterial activity against Salmonella typhimurium DT104 assessed as bacterial growth inhibition by measuring zone of inhibition at 50 ug/ml by agar cup diffusion assay. It is filed as functional, Salmonella enterica subsp. enterica serovar Typhimurium. As to conditions: Salmonella enterica, read-out: IZ.
The test system of assay [15] is Staphylococcus aureus. Briefly: Antibacterial activity against Staphylococcus aureus assessed as bacterial growth inhibition by measuring zone of inhibition at 50 ug/ml by agar cup diffusion assay. It is filed as functional. As to conditions: read-out: IZ.
The test system of assay [16] is Bacillus subtilis. Briefly: Antibacterial activity against Bacillus subtilis assessed as bacterial growth inhibition by measuring zone of inhibition at 50 ug/ml by agar cup diffusion assay. It counts as functional. As to conditions: read-out: IZ.
Assay [17] concerns Escherichia coli. Briefly: Antibacterial activity against Escherichia coli assessed as bacterial growth inhibition by measuring zone of inhibition at 50 ug/ml by agar cup diffusion assay. It counts as functional. As to conditions: read-out: IZ.
The test system of assay [18] is Staphylococcus aureus. Put plainly: Antibacterial activity against Staphylococcus aureus assessed as reduction in bacterial growth incubated for 16 to 20 hrs by Mueller-Hinton broth based two-fold serial dilution method. As to conditions: time 16-20 hrs. It is filed as functional.
The next assay has as its system Klebsiella pneumoniae. Put plainly: Antibacterial activity against Klebsiella pneumoniae assessed as reduction in bacterial growth incubated for 16 to 20 hrs by Mueller-Hinton broth based two-fold serial dilution method. It is filed as functional. As to conditions: time 16-20 hrs.
Assay [19] deals with Pseudomonas aeruginosa. Briefly: Antibacterial activity against Pseudomonas aeruginosa assessed as reduction in bacterial growth incubated for 24 hrs by broth microdilution method. It counts as functional.
Assay [20] concerns Streptococcus pyogenes. Briefly: Antibacterial activity against Streptococcus pyogenes assessed as reduction in microbial growth incubated for 24 hrs by broth micro-dilution method. It is filed as functional.
The test system of assay [21] is Escherichia coli. Briefly: Antibacterial activity against Escherichia coli assessed as reduction in bacterial growth incubated for 16 to 20 hrs by Mueller-Hinton broth based two-fold serial dilution method. It is filed as functional. As to conditions: time 16-20 hrs.
Another assay concerns Staphylococcus hominis. Briefly: Antibacterial activity against Staphylococcus hominis. It counts as functional.
A further assay concerns Acinetobacter sp. Put plainly: Antibacterial activity against Acinetobacter sp. It counts as functional.
The subject of assay [22] is Staphylococcus haemolyticus. Briefly: Antibacterial activity against Staphylococcus haemolyticus clinical isolates assessed as bacterial growth inhibition measured after 16 to 24 hrs by broth microdilution assay. As to conditions: time 16-24 hrs. It is filed as functional.
The subject of assay [23] is Staphylococcus epidermidis. Briefly: Antibacterial activity against Staphylococcus epidermidis assessed as reduction in microbial growth after 24 hrs by CLSI based microdilution method. It is filed as functional.
A further assay relates to Staphylococcus cohnii. Put plainly: Antibacterial activity against Staphylococcus cohnii. It is filed as functional.
Assay [24] concerns Micrococcus luteus. Put plainly: Antibacterial activity against Micrococcus luteus assessed as bacterial growth inhibition by paper disc diffusion assay. It counts as functional. In general terms: A growth-free zone around the sample is the usual read-out of agar diffusion tests.
A further assay deals with Moraxella catarrhalis. Briefly: Antibacterial activity against Moraxella catarrhalis assessed as reduction in bacterial growth by broth microdilution method. It counts as functional.
Assay [25] relates to Staphylococcus epidermidis. Briefly: Antibacterial activity against Staphylococcus epidermidis assessed as reduction in bacterial growth measured after 24 hrs by broth microdilution method. It counts as functional.
Assay [26] concerns Corynebacterium glutamicum. Put plainly: Antibacterial activity against Corynebacterium glutamicum ATCC 13032 cultured in MHB medium assessed as no bacterial growth incubated at 20 degC for 24 hrs by microdilution susceptibility test. It is filed as functional.
Assay [27] deals with Micrococcus luteus. Briefly: Antibacterial activity against Micrococcus luteus assessed as reduction in microbial growth. It is filed as functional.
The next assay concerns Staphylococcus xylosus. Briefly: Antibacterial activity against Staphylococcus xylosus assessed as reduction in bacterial growth. It is filed as functional.
Assay [28] has as its system Arcanobacterium haemolyticum. Put plainly: Antibacterial activity against Arcanobacterium haemolyticum. It counts as functional.
The test system of the next assay is Micrococcus sp. Briefly: Antibacterial activity against Micrococcus sp. It is filed as functional.
In assay [29] the test system is Corynebacterium glutamicum. Briefly: Antibacterial activity against Corynebacterium glutamicum. It counts as functional.
The subject of the next assay is Corynebacterium sp. Put plainly: Antibacterial activity against Corynebacterium sp. It counts as functional.
The next assay has as its system Corynebacterium xerosis. Put plainly: Antibacterial activity against Corynebacterium xerosis. It is filed as functional.
A further assay deals with Alcaligenes faecalis. Briefly: Antibacterial activity against Alcaligenes faecalis. It is filed as functional.

Consider `CCn1cc(C(=O)O)c(=O)c2cc(F)c(N3CCNCC3)cc21` [NORFLOXACIN], for which the MIC with Streptococcus pyogenes [1], in the assay on Pseudomonas aeruginosa [2], in the assay with Escherichia coli [3] and in the assay on Staphylococcus aureus [4] was 10 µg/mL in each case.
On to `Cc1nc(NC(=O)c2ccncc2)c2c(C(F)(F)F)cc(-c3ccccc3)nc2n1`, for which the MIC in the assay with Bacillus subtilis [5] was found to be 12.5 µg/mL (≈ 30.5 µM); in the assay with Pseudomonas aeruginosa [6] it was 50 µg/mL (≈ 122 µM); in the assay on Staphylococcus aureus [7] it was 12.5 µg/mL (≈ 30.5 µM); in the assay on Escherichia coli [8] it was 50 µg/mL (≈ 122 µM).
With `CCCCCCCc1ccc(C(=O)Nc2nc(C)nc3nc(-c4ccccc4)cc(C(F)(F)F)c23)cc1`, the MIC in the assay with Bacillus subtilis [5] came to 12.5 µg/mL (≈ 24.7 µM); with Pseudomonas aeruginosa [6], 50 µg/mL (≈ 98.7 µM); with Staphylococcus aureus [7], 12.5 µg/mL (≈ 24.7 µM); in the assay with Escherichia coli [8], 50 µg/mL (≈ 98.7 µM).
As to `N#Cc1nc2[nH]c(=O)[nH]c(=O)c2c(-c2c(Cl)cccc2Cl)c1N`, the MIC turned out to be 64 µg/mL (≈ 184 µM) with Staphylococcus aureus [9] and 4 µg/mL (≈ 11.5 µM) in the assay with Bacillus subtilis [10].
With `O=S(=O)(Nc1ncccn1)c1ccc(Nc2nc(Nc3ccc(Cl)cc3)nc(N3CCCCC3)n2)cc1`, the MIC stood at 200 µg/mL in the assay on Staphylococcus aureus [11], 100 µg/mL (≈ 186 µM) with Pseudomonas aeruginosa [12], 25 µg/mL (≈ 46.5 µM) in the assay with Escherichia coli [13] and 100 µg/mL with Streptococcus pyogenes [14].
As for `COc1ccc(-c2cc(-c3ccc(Oc4ccccc4)cc3)nc(SCC(=O)Nc3nc4ccc(OC)cc4s3)n2)cc1`, the MIC with Streptococcus pyogenes [1] stood at 50 µg/mL; in the assay with Pseudomonas aeruginosa [2] it was 25 µg/mL; in the assay on Escherichia coli [3], 25 µg/mL; in the assay with Staphylococcus aureus [4] it was 50 µg/mL.
In the case of `Cc1ccc(-c2cc(-c3cc(F)c(Cl)cc3Cl)nc(NC(=O)CSc3nnc(-c4cccnc4N4CCOCC4)o3)n2)cc1`, the zone of inhibition at 50 µg/mL in the assay with Salmonella typhimurium was found to be 10 mm; in the assay on Staphylococcus aureus [15], 11 mm; in the assay on Bacillus subtilis [16], 8 mm; in the assay on Escherichia coli [17] it was 12 mm.
For `Nc1c(-c2nc3ccccc3s2)c(-c2ccc(Cl)cc2)nc2nc(N/N=C/c3cccc([N+](=O)[O-])c3)[nH]c(=O)c12`, the MIC turned out to be 12.5 µg/mL (≈ 22 µM) in the assay with Staphylococcus aureus [18]; 12.5 µg/mL (≈ 22 µM) in the assay on Klebsiella pneumoniae; 12.5 µg/mL (≈ 22 µM) in the assay on Pseudomonas aeruginosa [19]; 12.5 µg/mL in the assay on Streptococcus pyogenes [20]; 12.5 µg/mL (≈ 22 µM) in the assay with Escherichia coli [21].
For the compound `Clc1ccc(C(Cc2ccccc2)c2c(Cl)nc(Cl)nc2Cl)cc1` (configuration not stated), the MIC is 100 µg/mL (≈ 251 µM) in the assay with Staphylococcus hominis; more than 1000 µg/mL in the assay on Acinetobacter sp.; 100 µg/mL (≈ 251 µM) in assay [22]; 100 µg/mL in assay [23]; 100 µg/mL (≈ 251 µM) in the assay on Staphylococcus cohnii; 20 µg/mL (≈ 50.2 µM) with Micrococcus luteus [24]. The MIC with Moraxella catarrhalis was 300 µg/mL (≈ 754 µM); in assay [25], more than 100 µg/mL; in assay [26], 30 µg/mL (≈ 75.4 µM); in the assay on Micrococcus luteus [27] it was 20 µg/mL; in the assay with Staphylococcus xylosus, 20 µg/mL (≈ 50.2 µM); in [28], 10 µg/mL (≈ 25.1 µM). Moreover, the MIC against Micrococcus sp. was 30 µg/mL (≈ 75.4 µM); in assay [29] it was 30 µg/mL (≈ 75.4 µM); in the assay on Corynebacterium sp., 100 µg/mL (≈ 251 µM); against Corynebacterium xerosis, 20 µg/mL (≈ 50.2 µM); in the assay with Alcaligenes faecalis, 1000 µg/mL (≈ 2510 µM).
`COc1ccc(-c2cc(-c3ccc(Oc4ccccc4)cc3)nc(SCC(=O)Nc3nc4ccc(S(=O)(=O)O)cc4s3)n2)cc1`: the MIC with Streptococcus pyogenes [1] stood at 100 µg/mL; in the assay with Pseudomonas aeruginosa [2], 50 µg/mL; with Escherichia coli [3], 62.5 µg/mL; in the assay on Staphylococcus aureus [4], 100 µg/mL.
On to `Nc1cccc(/C=N/Nc2nc3nc(-c4ccc(Cl)cc4)c(-c4nc5ccccc5s4)c(N)c3c(=O)[nH]2)c1`, for which the MIC came out at 25 µg/mL (≈ 46.4 µM) in the assay with Staphylococcus aureus [18]; 12.5 µg/mL (≈ 23.2 µM) in the assay on Klebsiella pneumoniae; 25 µg/mL (≈ 46.4 µM) with Pseudomonas aeruginosa [19]; 12.5 µg/mL with Streptococcus pyogenes [20]; 12.5 µg/mL (≈ 23.2 µM) in the assay with Escherichia coli [21].
